Experimental data reported in patent US10870647B2, “Imidazopyridine derivative, method for preparing same, and pharmaceutical composition containing same as active ingredient for preventing or treating cancer” (DAEGU-GYEONGBUK MEDICAL INNOVATION FOUNDATION, priority 2016, dated 2020).

Experiments:
Assay in all cases: Kinase selectivity, scanMAX Kinase assay panel (DiscoverX), % control at 1 uM
Type in all cases: binding
[1] = target: T1, scanMAX Kinase assay panel (Homo sapiens, UniProt O14733); conditions: MKK7; 1 uM; read-out: Percent Control (%)
T1 construct: purchased DiscoverX
T1 sequence (O14733 1-419): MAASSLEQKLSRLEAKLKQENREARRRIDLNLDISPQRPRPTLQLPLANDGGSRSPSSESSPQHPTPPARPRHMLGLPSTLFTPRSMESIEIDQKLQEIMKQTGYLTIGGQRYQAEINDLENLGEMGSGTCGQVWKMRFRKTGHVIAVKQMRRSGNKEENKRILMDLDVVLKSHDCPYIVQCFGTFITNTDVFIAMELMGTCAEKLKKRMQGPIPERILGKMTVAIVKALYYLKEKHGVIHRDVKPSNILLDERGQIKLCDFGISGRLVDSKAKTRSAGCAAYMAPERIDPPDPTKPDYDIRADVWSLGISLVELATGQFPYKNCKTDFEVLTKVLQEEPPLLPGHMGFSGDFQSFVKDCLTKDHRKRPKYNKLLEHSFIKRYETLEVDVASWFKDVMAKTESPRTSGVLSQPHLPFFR
In short: (§1)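 Binding across the scanMAX kinase panel was tested at 1 uM compound. % control = (compound − positive control)/(negative control − positive control) × 100; below 35 counted as active.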

[2] = target: T2, scanMAX Kinase assay panel (Homo sapiens, UniProt P42336, I800L); conditions: PIK3CA (I800L); 1 uM; read-out: Percent Control (%)
T2 construct: purchased DiscoverX
T2 sequence (P42336 whole entry I800L): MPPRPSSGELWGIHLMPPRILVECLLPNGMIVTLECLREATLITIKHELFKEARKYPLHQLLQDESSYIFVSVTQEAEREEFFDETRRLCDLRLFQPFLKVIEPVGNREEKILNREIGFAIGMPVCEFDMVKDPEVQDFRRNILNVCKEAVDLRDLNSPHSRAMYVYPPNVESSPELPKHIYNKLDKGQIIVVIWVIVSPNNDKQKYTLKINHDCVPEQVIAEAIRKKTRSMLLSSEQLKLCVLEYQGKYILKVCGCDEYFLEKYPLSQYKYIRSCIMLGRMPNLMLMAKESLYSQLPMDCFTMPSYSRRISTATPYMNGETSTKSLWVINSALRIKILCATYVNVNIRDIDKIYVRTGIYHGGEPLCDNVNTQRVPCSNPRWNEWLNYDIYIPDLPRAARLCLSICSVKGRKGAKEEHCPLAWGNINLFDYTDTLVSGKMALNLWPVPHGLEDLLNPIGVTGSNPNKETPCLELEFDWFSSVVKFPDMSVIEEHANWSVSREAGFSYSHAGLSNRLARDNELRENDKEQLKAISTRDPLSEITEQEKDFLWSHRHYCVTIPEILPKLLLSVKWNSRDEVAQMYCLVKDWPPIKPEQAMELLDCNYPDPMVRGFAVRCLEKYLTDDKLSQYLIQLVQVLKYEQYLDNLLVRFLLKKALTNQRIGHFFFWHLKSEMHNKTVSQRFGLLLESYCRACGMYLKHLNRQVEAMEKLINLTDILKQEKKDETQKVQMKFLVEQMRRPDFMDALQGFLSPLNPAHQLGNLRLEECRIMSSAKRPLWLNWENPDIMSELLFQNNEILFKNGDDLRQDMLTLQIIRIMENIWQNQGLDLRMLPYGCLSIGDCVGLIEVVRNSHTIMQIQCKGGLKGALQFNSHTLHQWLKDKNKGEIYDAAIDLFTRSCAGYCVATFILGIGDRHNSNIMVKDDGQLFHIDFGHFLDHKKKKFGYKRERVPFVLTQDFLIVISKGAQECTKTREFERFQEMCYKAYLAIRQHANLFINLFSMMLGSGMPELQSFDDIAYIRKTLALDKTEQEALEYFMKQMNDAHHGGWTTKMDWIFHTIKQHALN
In short: as §1

[3] = target: T3, scanMAX Kinase assay panel (Homo sapiens, UniProt P42336, M1043I); conditions: PIK3CA (M1043I); 1 uM; read-out: Percent Control (%)
T3 construct: purchased DiscoverX
T3 sequence (P42336 whole entry M1043I): as the sequence (P42336 whole entry I800L) above, with L800I, M1043I counted along it
In short: as §1

[4] = target: T4, scanMAX Kinase assay panel (Homo sapiens, UniProt P80192); conditions: MLK1; 1 uM; read-out: Percent Control (%)
T4 construct: purchased DiscoverX
T4 sequence (P80192 whole entry): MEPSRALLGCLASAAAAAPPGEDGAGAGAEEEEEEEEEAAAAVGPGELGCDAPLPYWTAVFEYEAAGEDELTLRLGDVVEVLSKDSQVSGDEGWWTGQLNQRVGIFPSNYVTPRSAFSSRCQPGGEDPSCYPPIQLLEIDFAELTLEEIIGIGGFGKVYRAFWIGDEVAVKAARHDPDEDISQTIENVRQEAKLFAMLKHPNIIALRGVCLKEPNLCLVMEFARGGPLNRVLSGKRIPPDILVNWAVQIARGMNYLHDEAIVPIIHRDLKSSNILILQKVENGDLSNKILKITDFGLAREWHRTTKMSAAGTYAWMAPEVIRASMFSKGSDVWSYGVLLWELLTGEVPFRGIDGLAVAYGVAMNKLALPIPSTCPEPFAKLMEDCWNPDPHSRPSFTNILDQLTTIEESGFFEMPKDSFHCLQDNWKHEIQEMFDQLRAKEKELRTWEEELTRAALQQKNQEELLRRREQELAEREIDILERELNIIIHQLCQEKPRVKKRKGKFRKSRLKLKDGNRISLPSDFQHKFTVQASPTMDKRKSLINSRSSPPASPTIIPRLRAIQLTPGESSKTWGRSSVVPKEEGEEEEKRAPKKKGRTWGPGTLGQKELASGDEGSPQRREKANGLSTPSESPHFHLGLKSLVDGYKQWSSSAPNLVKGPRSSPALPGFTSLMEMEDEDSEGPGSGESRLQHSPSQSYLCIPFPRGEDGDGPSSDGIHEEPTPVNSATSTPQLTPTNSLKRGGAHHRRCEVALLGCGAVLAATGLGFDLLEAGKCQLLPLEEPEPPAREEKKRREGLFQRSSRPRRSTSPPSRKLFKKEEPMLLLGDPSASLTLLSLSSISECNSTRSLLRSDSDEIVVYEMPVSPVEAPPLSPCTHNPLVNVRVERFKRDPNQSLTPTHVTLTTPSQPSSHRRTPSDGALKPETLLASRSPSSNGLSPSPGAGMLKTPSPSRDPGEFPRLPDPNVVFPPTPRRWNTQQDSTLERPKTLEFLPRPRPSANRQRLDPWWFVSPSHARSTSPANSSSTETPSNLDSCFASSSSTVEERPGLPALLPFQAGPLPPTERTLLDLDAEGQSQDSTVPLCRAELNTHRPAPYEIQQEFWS
In short: as §1

[5] = target: T5, scanMAX Kinase assay panel (Homo sapiens, UniProt Q00532); conditions: CDKL1; 1 uM; read-out: Percent Control (%)
T5 construct: purchased DiscoverX
T5 sequence (Q00532 whole entry): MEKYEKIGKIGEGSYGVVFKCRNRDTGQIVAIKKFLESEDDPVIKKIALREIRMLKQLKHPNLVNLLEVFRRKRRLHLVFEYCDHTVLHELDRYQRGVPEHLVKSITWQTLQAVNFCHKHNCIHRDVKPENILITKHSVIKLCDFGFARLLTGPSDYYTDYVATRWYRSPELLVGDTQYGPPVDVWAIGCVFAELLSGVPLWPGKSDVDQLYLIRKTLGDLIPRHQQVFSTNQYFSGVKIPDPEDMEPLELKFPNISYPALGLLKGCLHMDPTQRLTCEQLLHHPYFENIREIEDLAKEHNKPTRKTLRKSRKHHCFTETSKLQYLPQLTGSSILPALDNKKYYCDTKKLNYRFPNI
In short: as §1

[6] = target: T6, scanMAX Kinase assay panel (Homo sapiens, UniProt Q08881); conditions: ITK; 1 uM; read-out: Percent Control (%)
T6 construct: purchased DiscoverX
T6 sequence (Q08881 1-620): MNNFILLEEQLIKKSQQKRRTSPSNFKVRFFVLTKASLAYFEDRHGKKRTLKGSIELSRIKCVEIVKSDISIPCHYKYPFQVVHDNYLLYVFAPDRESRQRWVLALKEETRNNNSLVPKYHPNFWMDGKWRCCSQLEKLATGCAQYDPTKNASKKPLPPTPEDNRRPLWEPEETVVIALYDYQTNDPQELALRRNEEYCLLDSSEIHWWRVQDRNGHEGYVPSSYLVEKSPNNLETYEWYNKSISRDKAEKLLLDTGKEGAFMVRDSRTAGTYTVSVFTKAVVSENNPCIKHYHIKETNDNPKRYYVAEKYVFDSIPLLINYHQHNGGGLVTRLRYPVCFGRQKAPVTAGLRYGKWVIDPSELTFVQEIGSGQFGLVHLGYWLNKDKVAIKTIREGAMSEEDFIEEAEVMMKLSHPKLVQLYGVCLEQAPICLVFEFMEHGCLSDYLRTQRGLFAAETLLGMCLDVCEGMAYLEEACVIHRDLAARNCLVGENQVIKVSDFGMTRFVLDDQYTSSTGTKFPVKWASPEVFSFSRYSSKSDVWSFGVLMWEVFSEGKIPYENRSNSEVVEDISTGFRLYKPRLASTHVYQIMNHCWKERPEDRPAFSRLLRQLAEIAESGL
In short: as §1

[7] = target: T7, scanMAX Kinase assay panel (Homo sapiens, UniProt Q2M2I8); conditions: AAK1; 1 uM; read-out: Percent Control (%)
T7 construct: purchased DiscoverX
T7 sequence (Q2M2I8 whole entry): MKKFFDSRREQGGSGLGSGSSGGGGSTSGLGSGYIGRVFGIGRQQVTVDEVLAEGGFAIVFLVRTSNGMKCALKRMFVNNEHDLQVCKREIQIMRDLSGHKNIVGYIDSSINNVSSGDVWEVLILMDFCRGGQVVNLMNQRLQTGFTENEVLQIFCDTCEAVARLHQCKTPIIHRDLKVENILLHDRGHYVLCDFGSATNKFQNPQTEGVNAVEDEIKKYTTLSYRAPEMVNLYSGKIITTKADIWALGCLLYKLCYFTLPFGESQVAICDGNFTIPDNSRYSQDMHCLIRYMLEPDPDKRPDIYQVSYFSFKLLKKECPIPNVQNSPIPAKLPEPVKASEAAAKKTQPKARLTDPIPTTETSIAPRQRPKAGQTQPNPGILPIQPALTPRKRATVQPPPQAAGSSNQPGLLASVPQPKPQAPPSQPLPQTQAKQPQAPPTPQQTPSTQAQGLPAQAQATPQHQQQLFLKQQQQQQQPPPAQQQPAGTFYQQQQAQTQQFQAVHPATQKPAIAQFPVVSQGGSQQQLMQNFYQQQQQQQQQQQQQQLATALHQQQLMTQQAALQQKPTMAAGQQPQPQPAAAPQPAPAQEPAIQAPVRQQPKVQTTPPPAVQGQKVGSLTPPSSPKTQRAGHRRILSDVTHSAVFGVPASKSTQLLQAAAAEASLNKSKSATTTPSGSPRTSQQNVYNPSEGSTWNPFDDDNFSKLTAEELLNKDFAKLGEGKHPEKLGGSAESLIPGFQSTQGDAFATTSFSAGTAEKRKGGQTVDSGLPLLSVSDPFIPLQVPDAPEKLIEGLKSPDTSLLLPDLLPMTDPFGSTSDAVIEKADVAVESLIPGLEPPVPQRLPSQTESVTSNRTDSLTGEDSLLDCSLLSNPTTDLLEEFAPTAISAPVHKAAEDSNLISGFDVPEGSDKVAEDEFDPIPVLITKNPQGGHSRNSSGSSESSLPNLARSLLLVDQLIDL
In short: as §1

[8] = target: T8, scanMAX Kinase assay panel (Homo sapiens, UniProt Q8IWQ3); conditions: BRSK2; 1 uM; read-out: Percent Control (%)
T8 construct: purchased DiscoverX
T8 sequence (Q8IWQ3 1-736): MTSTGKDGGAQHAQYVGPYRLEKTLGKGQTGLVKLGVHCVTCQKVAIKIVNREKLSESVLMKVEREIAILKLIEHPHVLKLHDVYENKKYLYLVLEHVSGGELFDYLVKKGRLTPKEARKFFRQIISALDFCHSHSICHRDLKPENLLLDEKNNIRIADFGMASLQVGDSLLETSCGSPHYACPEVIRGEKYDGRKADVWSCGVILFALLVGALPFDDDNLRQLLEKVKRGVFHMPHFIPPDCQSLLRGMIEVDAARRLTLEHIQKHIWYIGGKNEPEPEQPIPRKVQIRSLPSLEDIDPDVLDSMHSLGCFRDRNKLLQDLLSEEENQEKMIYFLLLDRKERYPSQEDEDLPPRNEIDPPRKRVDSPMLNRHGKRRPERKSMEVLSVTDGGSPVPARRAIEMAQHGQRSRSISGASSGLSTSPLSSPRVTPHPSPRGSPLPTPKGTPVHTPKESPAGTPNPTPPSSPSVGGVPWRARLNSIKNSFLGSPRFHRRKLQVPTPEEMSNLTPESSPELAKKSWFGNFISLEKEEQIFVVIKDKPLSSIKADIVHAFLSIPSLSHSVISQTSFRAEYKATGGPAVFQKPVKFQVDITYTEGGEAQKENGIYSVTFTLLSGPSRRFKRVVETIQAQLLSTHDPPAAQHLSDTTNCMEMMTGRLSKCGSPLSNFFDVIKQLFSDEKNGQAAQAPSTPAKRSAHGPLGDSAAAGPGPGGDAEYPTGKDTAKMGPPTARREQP
In short: as §1

[9] = target: T9, scanMAX Kinase assay panel (Homo sapiens, UniProt Q9NY57); conditions: YANK2; 1 uM; read-out: Percent Control (%)
T9 construct: purchased DiscoverX
T9 sequence (Q9NY57 whole entry): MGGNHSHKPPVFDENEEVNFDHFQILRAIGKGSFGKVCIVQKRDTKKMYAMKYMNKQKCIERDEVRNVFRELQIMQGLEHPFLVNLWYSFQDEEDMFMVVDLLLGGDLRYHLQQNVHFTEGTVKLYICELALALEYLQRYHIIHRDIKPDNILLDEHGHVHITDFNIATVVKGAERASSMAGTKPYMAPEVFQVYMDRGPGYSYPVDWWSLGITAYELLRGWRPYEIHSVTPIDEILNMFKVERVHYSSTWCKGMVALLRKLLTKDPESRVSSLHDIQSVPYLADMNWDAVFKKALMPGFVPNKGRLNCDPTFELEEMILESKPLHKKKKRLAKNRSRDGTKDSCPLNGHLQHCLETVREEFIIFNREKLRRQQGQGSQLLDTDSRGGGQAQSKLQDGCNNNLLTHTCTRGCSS
In short: as §1

[10] = target: T10, scanMAX Kinase assay panel (Homo sapiens, UniProt Q9NYL2); conditions: ZAK; 1 uM; read-out: Percent Control (%)
T10 construct: purchased DiscoverX
T10 sequence (Q9NYL2 whole entry): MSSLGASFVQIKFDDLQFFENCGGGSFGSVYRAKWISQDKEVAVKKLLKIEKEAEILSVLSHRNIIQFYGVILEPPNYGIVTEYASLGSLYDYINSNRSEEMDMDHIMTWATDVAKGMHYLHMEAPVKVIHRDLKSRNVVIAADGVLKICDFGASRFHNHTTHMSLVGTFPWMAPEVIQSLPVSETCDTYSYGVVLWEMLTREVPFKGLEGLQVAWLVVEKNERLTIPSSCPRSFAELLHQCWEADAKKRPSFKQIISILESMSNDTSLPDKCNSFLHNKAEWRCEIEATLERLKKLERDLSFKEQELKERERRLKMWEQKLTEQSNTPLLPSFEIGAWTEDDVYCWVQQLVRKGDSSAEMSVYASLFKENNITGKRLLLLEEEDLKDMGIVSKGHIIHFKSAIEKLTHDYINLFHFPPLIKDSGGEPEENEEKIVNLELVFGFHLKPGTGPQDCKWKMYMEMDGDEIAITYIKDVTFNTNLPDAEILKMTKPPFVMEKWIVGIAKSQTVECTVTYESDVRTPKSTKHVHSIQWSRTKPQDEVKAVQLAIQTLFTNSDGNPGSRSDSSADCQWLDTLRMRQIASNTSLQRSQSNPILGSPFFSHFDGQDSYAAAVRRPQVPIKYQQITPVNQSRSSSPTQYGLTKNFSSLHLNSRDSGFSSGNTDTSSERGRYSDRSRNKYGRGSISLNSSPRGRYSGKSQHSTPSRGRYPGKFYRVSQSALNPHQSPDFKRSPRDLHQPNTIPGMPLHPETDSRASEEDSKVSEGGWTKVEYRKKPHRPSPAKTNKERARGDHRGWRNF
In short: as §1

Structure (SMILES) | remaining binding at 1 µM [1] [%] | remaining binding at 1 µM [2] [%] | remaining binding at 1 µM [3] [%] | remaining binding at 1 µM [4] [%] | remaining binding at 1 µM [5] [%] | remaining binding at 1 µM [6] [%] | remaining binding at 1 µM [7] [%] | remaining binding at 1 µM [8] [%] | remaining binding at 1 µM [9] [%] | remaining binding at 1 µM [10] [%]
Cc1ccc(C(=O)Nc2ccc(CN3CCN(C)CC3)c(C(F)(F)F)c2)cc1C#Cc1cnc2c(Nc3cnn(C)c3)cccn12 [Example 1, 4-methyl-3-((8-((1-methyl-1H-pyrazol-4-yl)amino)imidazo[1,2-a]pyridin-3-yl)ethynyl)-N-(4-((4-methylpiperazin-1-yl)methyl)-3-(trifluoromethyl)phenyl)benzamide] | 90 | 80 | 90 | 3 | 25 | 0 | 64 | 96 | 100 | 1
Cc1cn(-c2cc(NC(=O)c3ccc(C)c(C#Cc4cnc5c(Nc6cnn(C)c6)cccn45)c3)cc(C(F)(F)F)c2)cn1 [Example 12, 4-methyl-N-(3-(4-methyl-1H-imidazol-1-yl)-5-(trifluoromethyl)phenyl)-3-((8-((1-methyl-1H-pyrazol-4-yl)amino)imidazo[1,2-a]pyridin-3-yl)ethynyl)benzamide] | 100 | 75 | 100 | 35 | 60 | 69 | 85 | 87 | 99 | 1
Cc1ccc(NC(=O)C2(C(=O)Nc3ccc(F)cc3)CC2)cc1C#Cc1cnc2c(Nc3cnn(C(C)C)c3)cccn12 [Example 78] | 99 | 92 | 100 | 100 | 83 | 97 | 100 | 100 | 100 | 19
